Assay results from patent US11312712B2, “Azabenzimidazoles and their use as AMPA receptor modulators” (Janssen Pharmaceutica NV, priority 2015, dated 2022).

Target: GluA1o-γ8 (GRIA1o-CACNG8 fusion construct) (Homo sapiens (Human), UniProt P42261+Q8WXS5)
Assay: Calcium flux assay (FLIPR), inhibition of TARP γ8 dependent AMPA receptor activity
Assay type: cell-based
Details: GluA1o-γ8 (GRIA1o-CACNG8 fusion) in HEK293 cells, calcium flux after 15 μM glutamate
Excerpt: This assay was used to test compounds for their ability to inhibit TARP γ8 dependent AMPA receptor activity. The AMPA receptor is a non-selective cation channel activated by glutamate. Ionotropic glutamate receptors normally desensitize too rapidly to allow detectable calcium influx in a FLIPR assay (Strange et al. (2006). “Functional characterisation of homomeric ionotropic glutamate receptors GluR1-GluR6 in a fluorescence-based high throughput screening assay.” Comb Chem High Throughput Screen 9(2): 147-158). But, this desensitization is incomplete, and a substantial steady-state current remains in the sustained presence of glutamate (Cho et al. (2007). “Two families of TARP isoforms that have distinct effects on the kinetic properties of AMPA receptors and synaptic currents.” Neuron 55(6): 890-904).
An in vitro assay was used to determine the potency of test compounds as inhibitors of the glutamate response of the channel formed by GluA1o-γ8. To ensure a 1:1 stoichiometry of GluA1o and γ8 subunits in the expressed channel, a fusion of the cDNAs for GRIA1o and CACNG8 was used. Following Shi et al (2009) “The stoichiometry of AMPA receptors and TARPs varies by neuronal cell type.” Neuron 62(5): 633-640), the C-terminus of the cDNA for GRIA1o was fused to the N-terminus of the cDNA for γ8. The linker sequence was QQQQQQQQQQEFAT. Channels expressed with this construct appear to have similar properties to channels formed by co-expression of GRIA1o with an excess of CACNG8 (Shi et al. 2009). A clonal cell line in HEK293 cells stably expressing this construct, with a geneticin selection marker, was generated for use in this assay.
Cell expressing the GRIA1o-CACNG8 fusion construct were grown in a monolayer in 96- or 384-well microtiter plates. They were washed with assay buffer (135 mM NaCl, 4 mM KCl, 3 mM CaCl2, 1 mM MgCl2, 5 mM glucose, 10 mM HEPES, pH 7.4, 300 mOs) using a Biotek EL405 plate washer. The cells were then loaded with a calcium-sensitive dye (Calcium-5 or Calcium-6, Molecular Devices) and the test compounds at a range of concentrations. Calcium flux following the addition of 15 μM glutamate was monitored using a Molecular Devices FLIPR Tetra. The fluorescence in each well was normalized to the fluorescence of negative and positive control wells. The negative control wells had no added compounds, and the positive control wells had been incubated with 10 μM CP465022 (a non-subtype-selective AMPA receptor antagonist) (Lazzaro et al. (2002). “Functional characterization of CP-465,022, a selective, noncompetitive AMPA receptor antagonist.” Neuropharmacology 42(2): 143-153). The responses to glutamate as functions of the test compound concentrations were fitted to a four-parameter logistic function. The fitted parameter corresponding to the midpoint was taken to be the potency of inhibition of the compound. The data in Table 4 below illustrates the observed potentcy for the compounds described herein. pIC50 refers to the negative log of the IC50 in molar.

Sequence of GluA1o-γ8 (GRIA1o-CACNG8 fusion construct) (P42261 other isoform, or with tags, fused parts or gaps): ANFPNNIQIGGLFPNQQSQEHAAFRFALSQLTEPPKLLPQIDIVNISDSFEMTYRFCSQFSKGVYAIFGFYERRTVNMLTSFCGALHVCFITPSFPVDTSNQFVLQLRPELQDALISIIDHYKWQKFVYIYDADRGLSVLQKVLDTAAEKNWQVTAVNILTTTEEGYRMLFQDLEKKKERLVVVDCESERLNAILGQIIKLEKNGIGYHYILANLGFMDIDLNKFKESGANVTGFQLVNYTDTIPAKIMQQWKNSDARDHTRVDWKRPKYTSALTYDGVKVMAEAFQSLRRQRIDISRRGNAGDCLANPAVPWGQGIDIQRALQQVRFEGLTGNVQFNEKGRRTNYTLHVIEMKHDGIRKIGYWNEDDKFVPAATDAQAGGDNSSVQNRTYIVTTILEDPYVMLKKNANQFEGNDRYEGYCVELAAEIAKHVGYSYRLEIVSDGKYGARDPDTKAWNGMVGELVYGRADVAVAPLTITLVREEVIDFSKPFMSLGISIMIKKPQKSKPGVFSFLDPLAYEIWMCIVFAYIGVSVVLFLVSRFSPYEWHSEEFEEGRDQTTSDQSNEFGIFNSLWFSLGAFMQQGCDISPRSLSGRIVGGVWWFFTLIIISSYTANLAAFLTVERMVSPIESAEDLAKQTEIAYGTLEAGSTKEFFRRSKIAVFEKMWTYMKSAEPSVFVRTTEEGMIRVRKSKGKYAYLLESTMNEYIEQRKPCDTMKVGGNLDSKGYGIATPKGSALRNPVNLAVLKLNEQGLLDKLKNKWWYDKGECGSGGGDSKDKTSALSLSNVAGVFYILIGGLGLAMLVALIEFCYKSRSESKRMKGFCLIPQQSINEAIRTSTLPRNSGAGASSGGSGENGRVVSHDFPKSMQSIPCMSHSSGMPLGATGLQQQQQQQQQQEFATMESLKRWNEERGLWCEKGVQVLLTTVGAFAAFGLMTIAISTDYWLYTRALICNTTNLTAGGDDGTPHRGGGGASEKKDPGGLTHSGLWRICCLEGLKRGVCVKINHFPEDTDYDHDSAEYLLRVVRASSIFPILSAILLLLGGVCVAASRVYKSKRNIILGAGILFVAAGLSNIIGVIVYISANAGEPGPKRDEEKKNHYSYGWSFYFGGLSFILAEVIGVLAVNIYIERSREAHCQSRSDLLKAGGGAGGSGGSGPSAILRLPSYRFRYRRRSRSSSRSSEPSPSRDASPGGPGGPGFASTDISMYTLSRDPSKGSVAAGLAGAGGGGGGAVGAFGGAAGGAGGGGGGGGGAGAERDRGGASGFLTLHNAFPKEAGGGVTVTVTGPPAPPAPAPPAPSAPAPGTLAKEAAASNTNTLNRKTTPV

| SMILES | IC50 [nM] |
| --- | --- |
| O=C1Cc2cc(-n3c(C4CCOC4)nc4ccc(C(F)(F)F)nc43)ccc2N1 (racemic) [Example 52, (racemic)-5-[2-Tetrahydrofuran-3-yl-5-(trifluoromethyl)imidazo[4,5-b]pyridin-3-yl]indolin-2-one] | 20 |
| CCC(C)c1nc2ccc(C(F)(F)F)nc2n1-c1ccc2c(c1)CC(=O)N2 (racemic) [Example 96, (racemic)-5-[2-sec-Butyl-5-(trifluoromethyl)imidazo[4,5-b]pyridin-3-yl]indolin-2-one] | 6.31 |
| CC(F)c1nc2ccc(C(F)(F)F)nc2n1-c1ccc2[nH]ncc2c1 (racemic) [Example 117, (R/S)-2-(1-fluoroethyl)-3-(1H-indazol-5-yl)-5-(trifluoromethyl)imidazo[4,5-b]pyridine] | 5.01 |
| O=c1[nH]c2ccc(-n3c(C4CCOC4)nc4ccc(C(F)(F)F)nc43)cc2o1 (racemic) [Example 161, (R/S)-6-[2-Tetrahydrofuran-3-yl-5-(trifluoromethyl)imidazo[4,5-b]pyridin-3-yl]-3H-1,3-benzoxazol-2-one] | 316 |
| O=C1Cc2cc(-n3c(C4CCOC4)cc4ccc(C(F)(F)F)nc43)cc(F)c2N1 (racemic) [Example 365, (RS)-7-Fluoro-5-[2-tetrahydrofuran-3-yl-6-(trifluoromethyl)pyrrolo[2,3-b]pyridin-1-yl]indolin-2-one] | 0.2 |
| Cc1cc(-n2c([C@@H](C)F)nc3ccc(C(F)(F)F)nc32)cc2cn[nH]c12 (single isomer, unassigned) [Example 256, (*R)-2-(1-Fluoroethyl)-3-(7-methyl-1H-indazol-5-yl)-5-(trifluoromethyl)imidazo[4,5-b]pyridine] | 0.0794 |
| Cc1cc(-n2c([C@H](C)F)nc3ccc(C(F)(F)F)nc32)cc2cn[nH]c12 (single isomer, unassigned) [Example 257, (*S)-2-(1-Fluoroethyl)-3-(7-methyl-1H-indazol-5-yl)-5-(trifluoromethyl)imidazo[4,5-b]pyridine] | 0.0501 |
| CC[C@@H](C)c1nc2ccc(C(F)(F)F)nc2n1-c1cc(Cl)c2[nH]ncc2c1 (single isomer, unassigned) [Example 404, (*R)-2-(sec-Butyl)-3-(7-chloro-1H-indazol-5-yl)-5-(trifluoromethyl)-3H-imidazo[4,5-b]pyridine] | 0.1 |
| CC[C@@H](C)c1nc2ccc(C(F)(F)F)nc2n1-c1cc(C)c2[nH]ncc2c1 (single isomer, unassigned) [Example 406, (*R)-2-(sec-Butyl)-3-(7-methyl-1H-indazol-5-yl)-5-(trifluoromethyl)-3H-imidazo[4,5-b]pyridine] | 0.126 |
| CC[C@H](C)c1nc2ccc(C(F)(F)F)nc2n1-c1cc(C)c2[nH]ncc2c1 (single isomer, unassigned) [Example 407, (*S)-2-(sec-Butyl)-3-(7-methyl-1H-indazol-5-yl)-5-(trifluoromethyl)-3H-imidazo[4,5-b]pyridine] | 0.1 |
| C[C@H](F)c1nc2ccc(C(F)(F)F)nc2n1-c1cc(Cl)c2[nH]ncc2c1 (single isomer, unassigned) [Example 409, (*S)-3-(7-Chloro-1H-indazol-5-yl)-2-(1-fluoroethyl)-5-(trifluoromethyl)-3H-imidazo[4,5-b]pyridine] | 0.0794 |
| Cc1ccc2nc(-c3ccccc3)n(-c3ccc4[nH]ncc4c3)c2n1 [Example 3, 3-(1H-Indazol-5-yl)-5-methyl-2-phenyl-imidazo[4,5-b]pyridine] | 0.794 |
| Cc1ccc2nc(-c3ccc(F)cc3)n(-c3ccc4[nH]ncc4c3)c2n1 [Example 4, 2-(4-Fluorophenyl)-3-(1H-indazol-5-yl)-5-methyl-imidazo[4,5-b]pyridine] | 1 |
| COc1ccc2nc(-c3ccc(F)cc3)n(-c3ccc4[nH]ccc4c3)c2n1 [Example 5, 2-(4-Fluorophenyl)-3-(1H-indol-5-yl)-5-methoxy-imidazo[4,5-b]pyridine] | 39.8 |
| Fc1ccc(-c2nc3ccc(Cl)nc3n2-c2ccc3[nH]ncc3c2)cc1 [Example 7, 5-Chloro-2-(4-fluorophenyl)-3-(1H-indazol-5-yl)imidazo[4,5-b]pyridine] | 2 |
| Cc1ccc2nc(-c3ccccc3Cl)n(-c3ccc4[nH]ncc4c3)c2n1 [Example 8, 2-(2-Chlorophenyl)-3-(1H-indazol-5-yl)-5-methyl-imidazo[4,5-b]pyridine] | 63.1 |
| Clc1ccc2nc(-c3ccccc3)n(-c3ccc4[nH]ncc4c3)c2n1 [Example 10, 5-Chloro-3-(1H-indazol-5-yl)-2-phenyl-imidazo[4,5-b]pyridine] | 1 |
| Clc1ccc2nc(C3CCCC3)n(-c3ccc4[nH]ncc4c3)c2n1 [Example 11, 5-Chloro-2-cyclopentyl-3-(1H-indazol-5-yl)imidazo[4,5-b]pyridine] | 10 |
| O=c1[nH]c2ccc(-n3c(-c4ccccc4)nc4ccc(F)nc43)cc2s1 [Example 15, 6-(5-Fluoro-2-phenyl-imidazo[4,5-b]pyridin-3-yl)-3H-1,3-benzothiazol-2-one] | 3.16 |

Further compounds by falling IC50, results first:

| IC50 [nM] | SMILES |
| --- | --- |
| 251 | FC(F)(F)c1ccc2nc(C3CCOC3)n(-c3ccc4[nH]ncc4c3)c2n1 (racemic) [Example 100, (racemic)-3-(1H-Indazol-5-yl)-2-tetrahydrofuran-3-yl-5-(trifluoromethyl)imidazo[4,5-b]pyridine] |
| 50.1 | c1ccc(-c2nc3cccnc3n2-c2ccc3[nH]ncc3c2)cc1 [Example 2, 3-(1H-Indazol-5-yl)-2-phenyl-imidazo[4,5-b]pyridine] |
| 39.8 | COc1ccc2nc(-c3ccc(F)cc3)n(-c3ccc4c(c3)CC(=O)N4)c2n1 [Example 6, 5-[2-(4-Fluorophenyl)-5-methoxy-imidazo[4,5-b]pyridin-3-yl]indolin-2-one] |
| 31.6 | COC(C)c1cc2cccnc2n1-c1cc(C)c2c(c1)CC(=O)N2 (racemic) [Example 368, (RS)-5-[2-(1-Methoxyethyl)pyrrolo[2,3-b]pyridin-1-yl]-7-methyl-indolin-2-one] |
| 25.1 | Cc1cnc2c(c1)nc(-c1ccccc1)n2-c1ccc2[nH]ncc2c1 [Example 9, 3-(1H-Indazol-5-yl)-6-methyl-2-phenyl-imidazo[4,5-b]pyridine] |
| 20 | Cc1ccc2nc(-c3ccccc3)n(-c3ccc4c(cnn4C(=O)OC(C)(C)C)c3)c2n1 [Example 12, tert-Butyl 5-(5-methyl-2-phenyl-imidazo[4,5-b]pyridin-3-yl)indazole-1-carboxylate] |
| 10 | CCC(C)c1nc2ccc(C(F)(F)F)nc2n1-c1ccc2[nH]ncc2c1 (racemic) [Example 102, (racemic)-3-(1H-Indazol-5-yl)-2-sec-butyl-5-(trifluoromethyl)imidazo[4,5-b]pyridine] |
| 2 | FC(F)(F)c1ccc2nc(-c3ccccc3)n(-c3ccc4[nH]ccc4c3)c2n1 [Example 13, 3-(1H-Indol-5-yl)-2-phenyl-5-(trifluoromethyl)imidazo[4,5-b]pyridine] |
| 0.398 | FC(F)(F)c1ccc2nc(-c3ccccc3)n(-c3ccc4[nH]ncc4c3)c2n1 [Example 1, 3-(1H-Indazol-5-yl)-2-phenyl-5-(trifluoromethyl)-3H-imidazo[4,5-b]pyridine] |
| 0.158 | O=c1[nH]c2ccc(-n3c(-c4ccccc4)nc4ccc(C(F)(F)F)nc43)cc2s1 [Example 14, 6-[2-Phenyl-5-(trifluoromethyl)imidazo[4,5-b]pyridin-3-yl]-3H-1,3-benzothiazol-2-one] |
| 0.1 | C[C@@H](F)c1nc2ccc(C(F)(F)F)nc2n1-c1cc(Cl)c2[nH]ncc2c1 (single isomer, unassigned) [Example 408, (*R)-3-(7-Chloro-1H-indazol-5-yl)-2-(1-fluoroethyl)-5-(trifluoromethyl)-3H-imidazo[4,5-b]pyridine] |
| 0.0631 | CC[C@H](C)c1nc2ccc(C(F)(F)F)nc2n1-c1cc(Cl)c2[nH]ncc2c1 (single isomer, unassigned) [Example 405, (*S)-2-(sec-Butyl)-3-(7-chloro-1H-indazol-5-yl)-5-(trifluoromethyl)-3H-imidazo[4,5-b]pyridine] |
